{"source": "PubChem BioAssay (NCI)", "note": "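Growth conditions: 96-well plates. Treatment: test compound, 48 hours, 5 concentrations. Analysis: linear interpolation between bracketing concentrations; unreached endpoints set to highest concentration. TGI: total growth inhibition.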 Where a SMILES comes first, the peptide text is derived from it. The star is where a group is joined. OSu = O=C1CCC(=O)N1O*", "data": [{"tested_on": "HCT-15 colon", "assay": "DTP human tumour cell line panel, 48 h", "units": {"TGI": "µM"}, "values": [{"smiles": "Cc1ccc(S(=O)(=O)N2CC2CCCCC=O)cc1", "note": "(stereo unspecified)", "TGI": "> 100"}, {"smiles": "NC(N)=NS(=O)(=O)c1ccc(N=Nc2c(O)c(C(=O)O)cc3ccccc23)cc1", "TGI": "> 100"}]}, {"tested_on": "SF-539 CNS", "assay": "DTP human tumour cell line panel, 48 h", "units": {"TGI": "µM"}, "values": [{"smiles": "C=C(C)C12OC1[C@@]1(C)C(=CC2=O)CCC(O)[C@@H]1C", "note": "(stereo partly specified)", "TGI": 15.8}, {"smiles": "CCOC(=O)c1nnn(CCCCO)c1C(=O)OCC", "TGI": "> 100"}, {"smiles": "C(=C/CCCN1O[C@@H](CCCCCCCCc2cccnc2)[C@H]2CCC[C@H]21)/CCCCCCCCCc1cccnc1", "TGI": 34.9}, {"smiles": "NC(N)=NS(=O)(=O)c1ccc(N=Nc2c(O)c(C(=O)O)cc3ccccc23)cc1", "TGI": "> 100"}]}, {"tested_on": "CCRF-CEM leukemia", "assay": "DTP human tumour cell line panel, 48 h", "units": {"TGI": "µM"}, "values": [{"smiles": "C=C(C)C12OC1[C@@]1(C)C(=CC2=O)CCC(O)[C@@H]1C", "note": "(stereo partly specified)", "TGI": 8.82}, {"smiles": "CCOC(=O)c1nnn(CCCCO)c1C(=O)OCC", "TGI": "> 100"}, {"smiles": "Cc1ccc(-[n+]2cc([O-])on2)cc1", "TGI": "> 100"}, {"smiles": "C(=C/CCCN1O[C@@H](CCCCCCCCc2cccnc2)[C@H]2CCC[C@H]21)/CCCCCCCCCc1cccnc1", "TGI": 41.3}, {"smiles": "Cc1ccc(S(=O)(=O)N2CC2CCCCC=O)cc1", "note": "(stereo unspecified)", "TGI": 55.1}, {"smiles": "NC(N)=NS(=O)(=O)c1ccc(N=Nc2c(O)c(C(=O)O)cc3ccccc23)cc1", "TGI": "> 100"}]}, {"tested_on": "ACHN renal", "assay": "DTP human tumour cell line panel, 48 h", "units": {"TGI": "µM"}, "values": [{"smiles": "C=C(C)C12OC1[C@@]1(C)C(=CC2=O)CCC(O)[C@@H]1C", "note": "(stereo partly specified)", "TGI": 2.42}, {"smiles": "Cc1ccc(-[n+]2cc([O-])on2)cc1", "TGI": "> 100"}, {"smiles": "NCCCCC(NC(=O)C(N)Cc1ccc(O)cc1)C(=O)NC(CCCCN)C(=O)NC(CCCCN)C(=O)ON1C(=O)CCC1=O", "note": "(stereo unspecified) (H-YKKK-OSu; configuration not given here)", "TGI": "> 100"}, {"smiles": "Cc1ccc(S(=O)(=O)N2CC2CCCCC=O)cc1", "note": "(stereo unspecified)", "TGI": "> 100"}, {"smiles": "NC(N)=NS(=O)(=O)c1ccc(N=Nc2c(O)c(C(=O)O)cc3ccccc23)cc1", "TGI": "> 100"}]}, {"tested_on": "TK-10 renal", "assay": "DTP human tumour cell line panel, 48 h", "units": {"TGI": "µM"}, "values": [{"smiles": "C=C(C)C12OC1[C@@]1(C)C(=CC2=O)CCC(O)[C@@H]1C", "note": "(stereo partly specified)", "TGI": "> 100"}, {"smiles": "CCOC(=O)c1nnn(CCCCO)c1C(=O)OCC", "TGI": "> 100"}, {"smiles": "Cc1ccc(-[n+]2cc([O-])on2)cc1", "TGI": "> 100"}, {"smiles": "C(=C/CCCN1O[C@@H](CCCCCCCCc2cccnc2)[C@H]2CCC[C@H]21)/CCCCCCCCCc1cccnc1", "TGI": 38.4}, {"smiles": "NCCCCC(NC(=O)C(N)Cc1ccc(O)cc1)C(=O)NC(CCCCN)C(=O)NC(CCCCN)C(=O)ON1C(=O)CCC1=O", "note": "(stereo unspecified) (H-YKKK-OSu; configuration not given here)", "TGI": "> 100"}, {"smiles": "Cc1ccc(S(=O)(=O)N2CC2CCCCC=O)cc1", "note": "(stereo unspecified)", "TGI": "> 100"}, {"smiles": "NC(N)=NS(=O)(=O)c1ccc(N=Nc2c(O)c(C(=O)O)cc3ccccc23)cc1", "TGI": "> 100"}]}, {"tested_on": "OVCAR-8 ovarian", "assay": "DTP human tumour cell line panel, 48 h", "units": {"TGI": "µM"}, "values": [{"smiles": "C=C(C)C12OC1[C@@]1(C)C(=CC2=O)CCC(O)[C@@H]1C", "note": "(stereo partly specified)", "TGI": 8.24}, {"smiles": "CCOC(=O)c1nnn(CCCCO)c1C(=O)OCC", "TGI": "> 100"}, {"smiles": "Cc1ccc(-[n+]2cc([O-])on2)cc1", "TGI": "> 100"}, {"smiles": "C(=C/CCCN1O[C@@H](CCCCCCCCc2cccnc2)[C@H]2CCC[C@H]21)/CCCCCCCCCc1cccnc1", "TGI": 88.3}, {"smiles": "NCCCCC(NC(=O)C(N)Cc1ccc(O)cc1)C(=O)NC(CCCCN)C(=O)NC(CCCCN)C(=O)ON1C(=O)CCC1=O", "note": "(stereo unspecified) (H-YKKK-OSu; configuration not given here)", "TGI": "> 100"}, {"smiles": "Cc1ccc(S(=O)(=O)N2CC2CCCCC=O)cc1", "note": "(stereo unspecified)", "TGI": "> 100"}, {"smiles": "NC(N)=NS(=O)(=O)c1ccc(N=Nc2c(O)c(C(=O)O)cc3ccccc23)cc1", "TGI": "> 100"}]}, {"tested_on": "NCI-H522 lung", "assay": "DTP human tumour cell line panel, 48 h", "units": {"TGI": "µM"}, "values": [{"smiles": "C=C(C)C12OC1[C@@]1(C)C(=CC2=O)CCC(O)[C@@H]1C", "note": "(stereo partly specified)", "TGI": 5.91}, {"smiles": "Cc1ccc(-[n+]2cc([O-])on2)cc1", "TGI": "> 100"}, {"smiles": "Cc1ccc(S(=O)(=O)N2CC2CCCCC=O)cc1", "note": "(stereo unspecified)", "TGI": "> 100"}, {"smiles": "NC(N)=NS(=O)(=O)c1ccc(N=Nc2c(O)c(C(=O)O)cc3ccccc23)cc1", "TGI": "> 100"}]}, {"tested_on": "M14 melanoma", "assay": "DTP human tumour cell line panel, 48 h", "units": {"TGI": "µM"}, "values": [{"smiles": "C=C(C)C12OC1[C@@]1(C)C(=CC2=O)CCC(O)[C@@H]1C", "note": "(stereo partly specified)", "TGI": 18.1}, {"smiles": "Cc1ccc(-[n+]2cc([O-])on2)cc1", "TGI": "> 100"}, {"smiles": "C(=C/CCCN1O[C@@H](CCCCCCCCc2cccnc2)[C@H]2CCC[C@H]21)/CCCCCCCCCc1cccnc1", "TGI": 63}, {"smiles": "NCCCCC(NC(=O)C(N)Cc1ccc(O)cc1)C(=O)NC(CCCCN)C(=O)NC(CCCCN)C(=O)ON1C(=O)CCC1=O", "note": "(stereo unspecified) (H-YKKK-OSu; configuration not given here)", "TGI": "> 100"}, {"smiles": "Cc1ccc(S(=O)(=O)N2CC2CCCCC=O)cc1", "note": "(stereo unspecified)", "TGI": "> 100"}, {"smiles": "NC(N)=NS(=O)(=O)c1ccc(N=Nc2c(O)c(C(=O)O)cc3ccccc23)cc1", "TGI": "> 100"}]}, {"tested_on": "NCI-H460 lung", "assay": "DTP human tumour cell line panel, 48 h", "units": {"TGI": "µM"}, "values": [{"smiles": "C=C(C)C12OC1[C@@]1(C)C(=CC2=O)CCC(O)[C@@H]1C", "note": "(stereo partly specified)", "TGI": 11.4}, {"smiles": "CCOC(=O)c1nnn(CCCCO)c1C(=O)OCC", "TGI": "> 100"}, {"smiles": "Cc1ccc(-[n+]2cc([O-])on2)cc1", "TGI": "> 100"}, {"smiles": "C(=C/CCCN1O[C@@H](CCCCCCCCc2cccnc2)[C@H]2CCC[C@H]21)/CCCCCCCCCc1cccnc1", "TGI": 39.2}, {"smiles": "NCCCCC(NC(=O)C(N)Cc1ccc(O)cc1)C(=O)NC(CCCCN)C(=O)NC(CCCCN)C(=O)ON1C(=O)CCC1=O", "note": "(stereo unspecified) (H-YKKK-OSu; configuration not given here)", "TGI": "> 100"}]}]}
